# Source: patent US5480983A, “Adenosine derivatives, preparation methods and pharmaceutical compositions containing them” (Laboratoires UPSA, priority 1992, dated 1996)
# What was measured:
# [1] = molecular target: T1, rat central A1 adenosinergic receptors (Rattus norvegicus, UniProt P25099); assay: Binding to adenosine A1 receptors ([3H] PIA displacement); conditions: [3H] PIA 2.5 nM, n=3; for inhibition at 10 µM: read-out: % displacement of the labeled ligand, A1, 1E-5M; for inhibition at 0.1 µM: read-out: % displacement of the labeled ligand, A1, 1E-7M
# T1 construct: After the animal has been sacrificed by decapitation, the brain is quickly removed and washed in cold isotonic solution; from tissue; host or cells: rat brain, membrane preparation from the two hemispheres
# T1 sequence (P25099 1-326): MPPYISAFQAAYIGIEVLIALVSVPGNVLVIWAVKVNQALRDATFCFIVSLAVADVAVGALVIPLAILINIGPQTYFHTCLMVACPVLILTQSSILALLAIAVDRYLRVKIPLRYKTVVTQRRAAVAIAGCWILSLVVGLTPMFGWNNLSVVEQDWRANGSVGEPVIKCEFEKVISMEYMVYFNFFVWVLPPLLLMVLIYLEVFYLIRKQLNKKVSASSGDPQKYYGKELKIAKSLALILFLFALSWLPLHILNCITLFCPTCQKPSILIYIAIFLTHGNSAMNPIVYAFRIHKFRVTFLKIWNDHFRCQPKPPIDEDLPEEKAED
# Procedure: (§1) The affinity of the products of the Examples for the rat central A1 and A2 adenosinergic receptors is determined by the competitive technique using a radioactive ligand specifically bound either to the A1 receptors ([^3 H] PIA) or to the A2 receptors ([^3 H] NECA).
# After the animal has been sacrificed by decapitation, the brain is quickly removed and washed in cold isotonic solution. The two hemispheres are separated and weighed and each of them is introduced into a polyallomer tube containing 25 volumes of cold homogenization buffer. Homogenization is effected using an Ultra-Turrax for 30 seconds (3 times 10 seconds with 10-second intervals, 70% of the maximum speed). The ground material obtained is centrifuged at 1000 g (≈3000 rpm) for 10 minutes at 4° C.
# The supernatant is centrifuged again at 48,000 g (≈20,000 rpm) for 20 minutes at 4° C.
# When this step is complete, the residue is taken up with 4 volumes of homogenization buffer, resuspended using a Vortex and homogenized with the Ultra-Turrax. Adenosine deaminase is then added at a rate of 1 U/ml, i.e. 1 μl/ml of homogenate, using a 10 μl Hamilton syringe.
# After this treatment, the homogenate is shaken for 30 minutes at room temperature and then centrifuged at […] (≈20,000 rpm) for 30 minutes at 4° C.
# The residue obtained is resuspended in 10 volumes of homogenization buffer and passed through the Ultra-Turrax for 20 seconds (2 times 10 seconds with a 10-second interval, 70% of the maximum speed).
# The homogenate prepared in this way is used for the competitive tests. It is kept at 4° C. if the studies take place the same day, or stored at -20° C. in the form of 10 ml aliquots.
# After the homogenate has been thawed at room temperature, it is passed through a Potter mill (6 manual to-and-fro movements, speed 6), diluted to 2/5 in incubation buffer and placed in a water bath thermostated at 4° C., with shaking, until the end of the experiment.
# (§2) 50 μl of [^3 H] PIA at 100 nM, i.e. 2.5 nM in the final reaction medium allowing for the 1/40 dilution, and 50 μl of the product of the Example at the concentrations considered (10^-1 M and 10^-7 M) are introduced into the reaction tubes. The reaction is initiated by the addition of 1 ml of homogenate and 900 μl of incubation buffer. The procedure is identical for all the beta-blockers studied.
# (§3) The tubes are shaken and incubated in a water bath at 20° C. for 30 minutes. When the incubation is complete, the contents of the tubes are filtered on Whatman GF/B paper. Each tube is washed twice with 2 ml of rinsing buffer and then the filters themselves are rinsed with 3 ml of this same buffer.
# The filters are then transferred to counting flasks and 10 ml of liquid scintillator (Ready Solv HP/b, Beckman) are added.
# After they have been shaken, the flasks are stored in a refrigerator overnight and the radio-activity is then determined in a liquid scintillation counter.
# (§4) 3 tests are performed for each concentration studied. The non-specific binding of the [^3 H] PIA is assessed by measuring the amount of radioactivity retained on the filter in the presence of 10^-5 M phenylisopropyladenosine (PIA). The value of the non-specific binding is systematically subtracted from that of the tests.
# (§5) The results are expressed for each product in the form of the percentage displacement (n=3) of the labeled radioligand at concentrations of 10^-5 M and 10^-7 M.
# [2] = molecular target: T2, rat central A2 adenosinergic receptors (Rattus norvegicus, UniProt P30543); assay: Binding to adenosine A2 receptors ([3H] NECA displacement); conditions: [3H] NECA 4 nM, n=3; for inhibition at 10 µM: read-out: % displacement of the labeled ligand, A2, 1E-5M; for inhibition at 0.1 µM: read-out: % displacement of the labeled ligand, A2, 1E-7M
# T2 construct: the striatum is removed from each of them (Bruns et al., 1986); from tissue; host or cells: rat striatum, homogenate (membrane preparation)
# Procedure: as §1
# Method of studying the A2 receptors Membrane preparation
# After decapitation of the animal, the brain is quickly removed and washed in cold isotonic solution. The two hemispheres are separated and the striatum is removed from each of them (Bruns et al., 1986), weighed and introduced into a polyallomer tube containing 10 volumes of cold homogenization buffer. The tissue is homogenized with an Ultra-Turrax for 30 seconds (3 times 10 seconds with 10-second intervals, 70% of the maximum speed). The ground material is centrifuged at 50,000 g (≈20,500 rpm) for 10 minutes at 4° C.
# The residue obtained is resuspended in 10 volumes of homogenization buffer using a Vortex and homogenized with the Ultra-Turrax (5 to 10 seconds, 70% of the maximum speed).
# Adenosine deaminase is then added at a rate of 1 U/ml, i.e. 1 μl/ml of homogenate, using a 10 μl Hamilton syringe. The homogenate treated in this way is shaken at room temperature for 30 minutes.
# When the incubation is complete, the homogenate is centrifuged at 50,000 g (≈20,500 rpm) for 10 minutes at 4° C.
# The residue is taken up with 5 volumes of cold homogenization buffer and passed through the Ultra-Turrax (2 times 10 seconds with a 10-second interval, 70% of the maximum speed) and the homogenate prepared in this way is finally frozen at -70° C. Competitive test
# After the homogenate has been thawed at room temperature, 15 volumes of incubation buffer are added. The homogenate is shaken on a Vortex, passed through a Potter mill (6 to-and-fro movements, speed 6), diluted to 1/10 in incubation buffer and finally placed in a water bath thermostated at 4° C., with shaking, until the end of the experiment.
# as §2, with “NECA” for “PIA”, “160” for “100”, “4” for “2.5”, “(10^-5” for “(10^-1”, “similar” for “identical”, “compounds” for “beta-blockers”
# as §3, with “25°” for “20°”, “60” for “30”, “buffer before being transferred to counting flasks.” for “buffer.”
# 10 ml of liquid scintillator (Ready Solv HP/b, Beckman) are added to all the flasks. These are shaken and stored in a refrigerator overnight. The radioactivity is determined in a liquid scintillation counter.
# as §4, with “NECA” for “PIA”, “determined” for “assessed”, “5 μM N-ethylcarboxamidoadenosine (NECA).” for “10^-5 M phenylisopropyladenosine (PIA).”
# as §5
# [3] = Phenylbenzoquinone test (analgesic activity); assay type: in vivo; conditions: Mus musculus, 1 h; mice; oral, one hour before phenylbenzoquinone i.p.; 5 minutes observation; read-out: Phenylbenzoquinone test 50% inhibitory dose
# Procedure: 2. Phenylbenzoquinone test
# The intraperitoneal injection of phenylbenzoquinone causes twisting and stretching movements in mice. Analgesics prevent or reduce this syndrome, which can be considered as the exteriorization of diffuse abdominal pain.
# A 0.02% solution of phenylbenzoquinone in water is administered in a volume of 1 ml/100 g.
# The products of the Examples are administered orally one hour before the injection of phenylbenzoquinone.
# The stretching and twisting movements are counted for each mouse over an observation period of 5 minutes.
# T2 sequence (P30543 whole entry): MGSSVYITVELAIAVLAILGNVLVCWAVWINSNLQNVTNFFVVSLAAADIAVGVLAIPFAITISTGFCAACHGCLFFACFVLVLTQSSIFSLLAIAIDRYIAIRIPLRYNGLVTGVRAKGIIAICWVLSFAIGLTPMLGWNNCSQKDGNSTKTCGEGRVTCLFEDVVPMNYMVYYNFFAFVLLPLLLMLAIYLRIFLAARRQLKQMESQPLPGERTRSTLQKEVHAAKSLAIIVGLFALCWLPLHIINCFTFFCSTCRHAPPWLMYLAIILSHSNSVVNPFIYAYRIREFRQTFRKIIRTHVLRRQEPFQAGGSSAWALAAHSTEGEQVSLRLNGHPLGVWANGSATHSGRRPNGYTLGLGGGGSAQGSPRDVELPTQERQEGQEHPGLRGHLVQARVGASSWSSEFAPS
SMILES,inhibition at 10 µM ([1]; 1E-5M) [%],inhibition at 0.1 µM ([1]; 1E-7M) [%],inhibition at 10 µM ([2]; 1E-5M) [%],inhibition at 0.1 µM ([2]; 1E-7M) [%],"% displacement of the labeled ligand, A1, 1E-5M ([1]; 1E-5M, 10 µM) [%]","% displacement of the labeled ligand, A1, 1E-7M ([1]; 1E-7M, 0.1 µM) [%]","% displacement of the labeled ligand, A2, 1E-5M ([2]; 1E-5M, 10 µM) [%]","% displacement of the labeled ligand, A2, 1E-7M ([2]; 1E-7M, 0.1 µM) [%]",ED50 [3] [mg/kg]
"O=C(NC1CC1)[C@H]1O[C@@H](n2cnc3c(NCCc4cn(C5CCCC5)c5ccccc45)ncnc32)[C@H](O)[C@@H]1O [Example 64, β-D-Ribofuranuronamido-1-[6-[[2-[1-cyclopentylindol-3-yl]ethyl]amino]-9H-purin-9-yl]-N-cyclopropyl-1-deoxy]",96,21,90,28,–,–,–,–,0.3
"CC(C)n1cc(CCNc2ncnc3c2ncn3[C@@H]2O[C@H](C(=O)NC3CC3)[C@@H](O)[C@H]2O)c2ccccc21 [Example 65, β-D-Ribofuranuronamido-N-cyclopropyl-1-deoxy-1-[6-[[2-[1-isopropylindol-3-yl]-ethyl]amino]-9H-purin-9-yl]]",87,4,91,14,–,–,–,–,0.3
"O=C(NC1CC1)[C@H]1O[C@@H](n2cnc3c(NCCc4cn(CCN5CCOCC5)c5ccccc45)ncnc32)[C@H](O)[C@@H]1O [Example 69, β-D-Ribofuranuronamido-N-cyclopropyl-1-deoxy-1-[6-[[2-[1-(2-N-morpholinoethyl)indol-3-yl]ethyl]amino]-9H-purin-9-yl]]",93,63,90,12,–,–,–,–,–
"O=C(NC1CC1)[C@H]1O[C@@H](n2cnc3c(NCCc4cn(CCN5CCCCC5)c5ccccc45)ncnc32)[C@H](O)[C@@H]1O [Example 71 (base), β-D-Ribofuranuronamido-N-cyclopropyl-1-deoxy-1-[6-[[2-[1-(2-N-piperidinoethyl)indol-3-yl]ethyl]amino]-9H-purin-9-yl]]",–,–,–,–,99,94,92,46,–

# Now from value to compound, other results behind:
inhibition at 10 µM ([1]; 1E-5M) [%],inhibition at 0.1 µM ([1]; 1E-7M) [%],inhibition at 10 µM ([2]; 1E-5M) [%],inhibition at 0.1 µM ([2]; 1E-7M) [%],"% displacement of the labeled ligand, A1, 1E-5M ([1]; 1E-5M, 10 µM) [%]","% displacement of the labeled ligand, A1, 1E-7M ([1]; 1E-7M, 0.1 µM) [%]","% displacement of the labeled ligand, A2, 1E-5M ([2]; 1E-5M, 10 µM) [%]","% displacement of the labeled ligand, A2, 1E-7M ([2]; 1E-7M, 0.1 µM) [%]",SMILES,ED50 [3] [mg/kg]
98,47,91,30,–,–,–,–,"O=C(NC1CC1)[C@H]1O[C@@H](n2cnc3c(NCCc4cn(Cc5ccc(Cl)cc5)c5ccccc45)ncnc32)[C@H](O)[C@@H]1O [Example 61, β-D-Ribofuranuronamido-1-[6-[[2-[1-(4-chlorobenzyl)indol-3-yl]ethyl]amino]-9H-purin-9-yl]-N-cyclopropyl-1-deoxy]",0.9
98,61,90,19,–,–,–,–,"COCCn1cc(CCNc2ncnc3c2ncn3[C@@H]2O[C@H](C(=O)NC3CC3)[C@@H](O)[C@H]2O)c2ccccc21 [Example 63, β-D-Ribofuranuronamido-N-cyclopropyl-1-deoxy-1-[6-[[2-[1-(2-methoxyethyl)indol-3-yl]ethyl]amino]-9H-purin-9-yl]]",10
97,37,89,21,–,–,–,–,"Cc1ccc(Cn2cc(CCNc3ncnc4c3ncn4[C@@H]3O[C@H](C(=O)NC4CC4)[C@@H](O)[C@H]3O)c3ccccc32)cc1 [Example 66, β-D-Ribofuranuronamido-N-cyclopropyl-1-deoxy-1-[6-[[2-[1-(4-methylbenzyl)indol-3-yl]ethyl]amino]-9H-purin-9-yl]]",3
96,29,83,13,–,–,–,–,"Cc1ccc(Cn2cc(CCNc3ncnc4c3ncn4[C@@H]3O[C@H](C(=O)NC4CC4)[C@@H](O)[C@H]3O)c3ccccc32)cc1C [Example 67, β-D-Ribofuranuronamido-N-cyclopropyl-1-deoxy-1-[6-[[2-[1-(3,4-dimethylbenzyl)indol-3-yl]ethyl]amino]-9H-purin-9-yl]]",3
100,91,94,44,–,–,–,–,"CN(C)CCn1cc(CCNc2ncnc3c2ncn3[C@@H]2O[C@H](C(=O)NC3CC3)[C@@H](O)[C@H]2O)c2ccccc21 [Example 70, β-D-Ribofuranuronamido-N-cyclopropyl-1-deoxy-1-[6-[[2-[1-(2-N,N-dimethylaminoethyl)indol-3-yl]ethyl]amino]-9H-purin-9-yl]]",–
